# Where a name gives a salt, the structure may show the parent alone.
# What was measured:
# [1] = test system: peripheral blood lymphocytes; assay: In vivo: blood lymphocyte depletion; conditions: rats, p.o.
# Method: B. In Vivo: Blood Lymphocyte Depletion
# A compound of formula I or the vehicle is administered orally by gavage to rats. Tall blood for hematological monitoring is obtained on day −1 to give the baseline individual values, and at 2, 6, 24, 48 and 72 hours after application. In this assay, the compounds of formula I deplete peripheral blood lymphocytes when administered at a dose of 0.03 to 3 mg/kg.
# [2] = biological target: T1, human S1P receptors (S1P3) (Homo sapiens, UniProt Q99500); assay: S1P receptor profiling, GTP[γ-35S] binding SPA, S1P3; assay type: biochemical; parameters: key to S1P3 mode of action (Agon = agonist): Agon = agonist; conditions: for EC50: GTP[γ-35S] binding, membranes of transfected CHO or RH7777 cells
# T1 construct: expressed in transfected cells
# T1 sequence (Q99500 whole entry): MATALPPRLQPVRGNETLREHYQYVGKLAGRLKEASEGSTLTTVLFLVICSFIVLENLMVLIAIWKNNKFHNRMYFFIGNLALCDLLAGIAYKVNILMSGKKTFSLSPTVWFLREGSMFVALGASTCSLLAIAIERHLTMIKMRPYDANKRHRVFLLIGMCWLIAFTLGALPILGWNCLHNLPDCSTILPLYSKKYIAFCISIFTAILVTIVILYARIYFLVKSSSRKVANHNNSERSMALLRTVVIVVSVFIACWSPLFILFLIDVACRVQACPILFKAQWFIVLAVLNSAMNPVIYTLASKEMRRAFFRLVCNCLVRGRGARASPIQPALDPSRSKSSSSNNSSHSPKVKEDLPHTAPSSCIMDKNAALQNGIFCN
# Method: (§1) The compounds of formula I have binding affinity to individual human S1P receptors as determined in following assays:
# (§2) Sphingosine-1-Phosphate (S1P) Receptor Profiling
# (§3) Agonist activities of compounds are tested on the human S1P receptors (S1P1), (S1P3), (S1P2), (S1P4) and (S1P5). […] The assay technology used is SPA (scintillation proximity based assay). Briefly, DMSO dissolved compounds are serially diluted and added to SPA-bead (Amersham-Pharmacia) immobilised S1P receptor expressing membrane protein (10-20 μg/well) in the presence of 50 mM Hepes, 100 mM NaCl, 10 mM MgCl2, 10 μM GDP, 0.1% fat free BSA and 0.2 nM GTP [γ-^35S] (1200 Ci/mmol). After incubation in 96 well microtiterplates at RT for 120 min, unbound GTP [γ-^35S] is separated by a centrifugation step. Luminescence of SPA beads triggered by membrane bound GTP [γ-^35S] is quantified with a TOPcount plate reader (Packard). EC50s are calculated using standard curve fitting software.
# [3] = biological target: T2, human S1P receptors (S1P5) (Homo sapiens, UniProt Q9H228); assay: S1P receptor profiling, GTP[γ-35S] binding SPA, S1P5; assay type: biochemical; parameters: key to S1P5 mode of action (Agon = agonist): Agon = agonist; conditions: for EC50: GTP[γ-35S] binding, membranes of transfected CHO or RH7777 cells; for S1P5 mode of action (Agon = agonist): column beside S1P5 EC50
# T2 construct: expressed in transfected cells
# T2 sequence (Q9H228 whole entry): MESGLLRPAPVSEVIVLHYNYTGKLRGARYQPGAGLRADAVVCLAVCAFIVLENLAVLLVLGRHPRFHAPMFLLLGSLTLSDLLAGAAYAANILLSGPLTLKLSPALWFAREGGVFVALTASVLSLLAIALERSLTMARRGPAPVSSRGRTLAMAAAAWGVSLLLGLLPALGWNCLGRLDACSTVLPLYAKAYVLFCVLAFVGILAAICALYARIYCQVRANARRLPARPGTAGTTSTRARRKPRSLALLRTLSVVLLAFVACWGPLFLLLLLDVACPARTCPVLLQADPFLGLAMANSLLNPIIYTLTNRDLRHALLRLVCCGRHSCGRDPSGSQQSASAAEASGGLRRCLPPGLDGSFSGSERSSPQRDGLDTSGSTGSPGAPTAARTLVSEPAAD
# Method: as §1, §2, §3
# [4] = biological target: T3, human S1P receptors (S1P4) (Homo sapiens, UniProt O95977); assay: S1P receptor profiling, GTP[γ-35S] binding SPA, S1P4; assay type: biochemical; parameters: key to S1P4 mode of action (Agon = agonist): Agon = agonist; conditions: for EC50: GTP[γ-35S] binding, membranes of transfected CHO or RH7777 cells; for S1P4 mode of action (Agon = agonist): column beside S1P4 EC50
# T3 construct: expressed in transfected cells
# T3 sequence (O95977 1-384): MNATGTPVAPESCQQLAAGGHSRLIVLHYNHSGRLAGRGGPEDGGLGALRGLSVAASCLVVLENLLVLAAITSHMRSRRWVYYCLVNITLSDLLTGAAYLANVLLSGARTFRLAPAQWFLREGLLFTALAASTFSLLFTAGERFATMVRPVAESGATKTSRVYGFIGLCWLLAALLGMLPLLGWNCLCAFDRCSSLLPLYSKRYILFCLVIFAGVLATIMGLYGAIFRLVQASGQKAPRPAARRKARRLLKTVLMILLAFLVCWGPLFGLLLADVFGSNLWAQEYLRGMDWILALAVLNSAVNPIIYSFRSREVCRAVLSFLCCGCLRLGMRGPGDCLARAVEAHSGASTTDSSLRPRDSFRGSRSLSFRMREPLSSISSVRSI
# Method: as §1, §2, §3
# [5] = biological target: T4, human S1P receptors (S1P1) (Homo sapiens, UniProt P21453); assay: S1P receptor profiling, GTP[γ-35S] binding SPA, S1P1; assay type: biochemical; parameters: key to S1P1 mode of action (Agon = agonist): Agon = agonist; conditions: for EC50: GTP[γ-35S] binding, membranes of transfected CHO or RH7777 cells
# T4 construct: expressed in transfected cells
# T4 sequence (P21453 whole entry): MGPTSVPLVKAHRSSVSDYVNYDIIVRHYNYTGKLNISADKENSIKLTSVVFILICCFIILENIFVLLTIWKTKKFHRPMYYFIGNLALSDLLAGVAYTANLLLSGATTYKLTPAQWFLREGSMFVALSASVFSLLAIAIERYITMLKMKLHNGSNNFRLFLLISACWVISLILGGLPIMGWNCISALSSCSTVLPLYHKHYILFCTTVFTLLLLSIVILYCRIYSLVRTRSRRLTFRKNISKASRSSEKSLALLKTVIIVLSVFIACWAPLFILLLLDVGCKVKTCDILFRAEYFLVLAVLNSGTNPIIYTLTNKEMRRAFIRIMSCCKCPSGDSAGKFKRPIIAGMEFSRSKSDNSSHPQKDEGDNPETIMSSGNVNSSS
# Method: as §1, §2, §3
# [6] = biological target: T5, human S1P receptors (S1P2) (Homo sapiens, UniProt O95136); assay: S1P receptor profiling, GTP[γ-35S] binding SPA, S1P2; assay type: biochemical; conditions: membranes of transfected CHO or RH7777 cells
# T5 construct: expressed in transfected cells
# T5 sequence (O95136 whole entry): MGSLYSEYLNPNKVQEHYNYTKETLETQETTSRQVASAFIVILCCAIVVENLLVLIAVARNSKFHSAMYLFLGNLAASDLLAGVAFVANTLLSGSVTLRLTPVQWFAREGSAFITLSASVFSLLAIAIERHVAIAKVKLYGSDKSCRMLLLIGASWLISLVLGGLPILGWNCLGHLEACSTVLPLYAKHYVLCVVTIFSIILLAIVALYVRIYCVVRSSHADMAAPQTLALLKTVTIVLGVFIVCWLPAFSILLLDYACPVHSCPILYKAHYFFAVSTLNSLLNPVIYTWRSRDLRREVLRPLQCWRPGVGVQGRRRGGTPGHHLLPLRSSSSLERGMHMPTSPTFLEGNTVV
# Method: as §1, §2, §3
Compound,melting point [°C],dose giving depletion of peripheral blood lymphocytes by more than 50% ([1]; after 6 h) [mg/kg],dose giving depletion of peripheral blood lymphocytes by more than 50% ([1]; after 24 h) [mg/kg],EC50 [2] [nM],EC50 [3] [nM],S1P5 mode of action (Agon = agonist) [3],EC50 [4] [nM],S1P4 mode of action (Agon = agonist) [4],S1P1 mode of action (Agon = agonist) [5],EC50 [5] [nM],EC50 [6] [nM],S1P3 mode of action (Agon = agonist) ([2]; column beside S1P3 EC50)
"C[C@](N)(CO)CCc1ccc(OCCCC(F)(F)C(F)(F)F)cc1 (as salt: hydrochloride) [Example 1, (R)-2-Amino-2-methyl-4-[4-(4,4,5,5,5-pentafluoro-pentyloxy)-phenyl]-butan-1-ol Hydrochloride]",186 to 189,,,,,,,,,,,
"C[C@](N)(CO)CCc1ccc(OCCCCCF)cc1 (as salt: hydrochloride) [Example 2, (R)-2-Amino-2-methyl-4-[4-(5-fluoro-pentyloxy)-phenyl]-butan-1-ol Hydrochloride]",143 to 146,,,,,,,,,,,
"C[C@](N)(CO)CCc1ccc(OCCCC(F)(F)C(F)(F)F)cc1 [Example 1, (R)-2-Amino-2-methyl-4-[4-(4,4,5,5,5-pentafluoro-pentyloxy)-phenyl]-butan-1-ol Hydrochloride]",,0.2,0.1,,,,,,,,,
"C[C@@](N)(CCc1ccc(OCCCC(F)(F)C(F)(F)F)cc1)COP(=O)(O)O [Example 34, Mono-(R)-2-Amino-2-methyl-4-[4-(4,4,5,5,5-pentafluoro-pentyloxy)-phenyl]-but-2-yl phosphate]",229 to 231,,,> 10000,0.9,Agon,15.3,Agon,Agon,16.1,> 10000,
"C[C@@](N)(CCc1ccc(OCCCCCF)cc1)COP(=O)(O)O [Example 35, Mono-(R)-2-Amino-2-methyl-4-[4-(5-fluoro-pentyloxy)-phenyl]-but-2-yl phosphate]",237 to 241,,,,,,,,,,,
CC(N)(CCc1ccc(OCCc2ccc3ccccc3c2)cc1)COP(=O)(O)O (stereo not drawn) [Example 42],,,,> 10000,21.7,Agon,1.8,Agon,Agon,4.1,> 10000,
C[C@@](N)(CCc1ccc(C(=O)CCc2ccc(-c3ccccc3)cc2)cc1)COP(=O)(O)O [Example 50],,,,196,1.5,Agon,> 10000,,Agon,0.3,> 10000,Agon
COc1ccc(CCOc2ccc(CCC(N)(CO)COP(=O)(O)O)cc2)cc1F (stereo not drawn) [Example 94],,,,> 10000,4.9,Agon,,,Agon,12.2,> 10000,
